The target of test [1] is T1, Leukotriene B4 receptor 2 (Homo sapiens, UniProt Q9NPC1).
T1 sequence (Q9NPC1 whole entry): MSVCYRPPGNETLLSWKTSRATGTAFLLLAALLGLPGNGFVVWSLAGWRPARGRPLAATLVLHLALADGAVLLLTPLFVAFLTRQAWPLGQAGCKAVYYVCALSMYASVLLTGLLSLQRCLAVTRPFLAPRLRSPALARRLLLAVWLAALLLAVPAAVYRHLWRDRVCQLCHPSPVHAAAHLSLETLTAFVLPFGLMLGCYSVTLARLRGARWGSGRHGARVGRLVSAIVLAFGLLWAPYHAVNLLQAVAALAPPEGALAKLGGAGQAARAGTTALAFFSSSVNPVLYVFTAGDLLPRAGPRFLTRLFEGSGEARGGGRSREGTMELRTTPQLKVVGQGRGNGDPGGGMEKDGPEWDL

The target of test [2] is Leukotriene B4 receptor 1 (Homo sapiens, UniProt Q15722).
Leukotriene B4 receptor 1, sequence (Q15722 whole entry): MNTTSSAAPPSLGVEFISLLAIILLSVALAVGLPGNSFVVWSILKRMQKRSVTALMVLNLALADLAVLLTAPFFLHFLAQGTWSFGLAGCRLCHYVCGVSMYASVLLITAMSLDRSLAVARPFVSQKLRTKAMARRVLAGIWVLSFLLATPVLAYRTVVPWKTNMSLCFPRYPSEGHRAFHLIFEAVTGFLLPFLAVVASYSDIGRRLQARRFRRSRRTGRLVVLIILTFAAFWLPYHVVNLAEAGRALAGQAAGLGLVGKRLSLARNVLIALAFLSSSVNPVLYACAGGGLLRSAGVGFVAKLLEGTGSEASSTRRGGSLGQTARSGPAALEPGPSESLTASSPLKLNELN

Each structure is given as a SMILES string. “And” between values parts separate entries of the source, which are not always exact repeats. Equal values may be shown once.

By Ki is commonly meant a measure of affinity in units of concentration, obtained from inhibition or displacement. In the case of `CCCCCC=CCC=CC=CC=CC(SCC(NC(=O)CCC(N)C(=O)O)C(=O)O)C(O)CCCC(=O)O` (centres undefined) [NSC_5283124], the inhibition constant (Ki) in test [1] was found to be 6 µM; in test [2], 5.7 µM.

Compound `CCCCCC=CCC=CCC=CCC#CCCCC(=O)O` [NSC_1777] displayed an inhibition constant Ki in test [1] of 1 µM.

With `O=C(O)CCCC=CCC=CCC=CCC=CCCCCCO` [CAS_5283157], the Ki in test [1] is above 1 µM; in test [2], above 10 µM.

Regarding `CCCCC/C=C\C/C=C\CC=CC=CC(=O)CCCC(=O)O` [ETE-5-Oxo], the Ki in test [1] and in test [2] was above 1 µM throughout.

`CCCCCC=CCC=CC=CC(O)CC=CCCCC(=O)O` (centres undefined) [NSC_5283163]: the inhibition constant (Ki) was above 1 µM in test [1] and above 30 µM in test [2].

For `CCCCCCCCC=CC=CC=CC(SCC(NC(=O)CCC(N)C(=O)O)C(=O)NCC(=O)O)C(O)CCCC(=O)O` (centres undefined) [LTC3], the inhibition constant Ki is above 4 µM in test [1] and above 14 µM in test [2].

As to `CCCCCCCCC=CC=CC=CC1OC1CCCC(=O)OC` (centres undefined) [LTA3-ME], the Ki in test [1] was above 10 µM; in test [2], 5 µM.

As to `CCCCC/C=C\C\C=C/C=C/C=C/[C@@H](SC[C@H](N)C(=O)NCC(=O)O)[C@@H](O)CCCC(=O)O` [5S-hydroxy-6R-(S-cysteinylglycinyl)-7E,9E,11E,14Z-eicosatetraenoic acid], the figures for the Ki in test [1] and in test [2] were above 10 µM and 4 µM, respectively.

In test [2], `CC/C=C/CC=CCC=CC=CC=CC(SCC(N)C(=O)NCC(=O)O)C(O)CCCC(=O)O` (centres undefined) [LTD5] yielded an inhibitory constant (Ki) above 10 µM.

`CCCCC/C=C\C[C@@H](O)/C=C/C=C/C=C\[C@@H](O)CCCC(=O)NCCCN` [LTB4-3-aminopropylamide]: the inhibition constant Ki in test [1] worked out at 1.23 µM; in test [2], 0.0051 µM.

`COc1cc(C(=O)NS(=O)(=O)c2ccccc2C)ccc1Cc1cn(C)c2ccc(NC(=O)OC3CCCC3)cc12` [cyclopentyl 3-(2-methoxy-4-((o-tolylsulfonyl)carbamoyl)benzyl)-1-methylindole-5-carbamate]: the Ki in test [1] is above 10 µM; in test [2], 7.12 µM.

For the compound `CCCCCCC=CC(=O)C=CC=CCC=CCCCC(=O)O` [NSC_5283162], the Ki in test [1] was 0.155 µM; in test [2], above 1 µM.

Consider `CCCCC/C=C\C/C=C\C/C=C\C=C\C(O)CCCC(=O)O` [HETE-5(S)], for which the Ki in test [1] was 1 µM and 3 µM; in test [2], 1 µM and > 10 µM.

As to `CCC=CCC=CCC(O)C=CC=CC=CC(O)CCCC(=O)O` (centres undefined) [NSC_5283125], the Ki is 0.0094 µM in test [1] and 0.0037 µM in test [2].

For the compound `CCCCCC(O)C=CC=CC=CC=CC(O)C(O)CCCC(=O)O` (centres undefined) [NSC_5280914], the Ki came out at 1.4 µM in test [1] and 1.44 µM in test [2].

For `CCCCCCCCC=CC=CC=CC(SCC(N)C(=O)NCC(=O)O)C(O)CCCC(=O)O` (centres undefined) [LTD3], the inhibition constant (Ki) in test [1] was 1 µM; in test [2], above 10 µM.

Consider `CCCCCC=CCC=CC=CC=CC1OC1CCCC(=O)OC` (centres undefined) [NSC_126534], for which the Ki in test [1] and in test [2] was above 10 µM throughout.

Regarding `CCCCCC=CCC=CC=CC=CC(SCC(NC(=O)CCC(N)C(=O)O)C(=O)NCC(=O)O)C(O)CCCC(=O)O` (centres undefined) [CAS_5283121], the inhibition constant Ki is above 9 µM in test [1] and above 1.9 µM in test [2].

On to `CCCCC/C=C\C[C@H](O)/C=C/c1cccc(C[C@H](O)CCCCO)n1` [(5R)-6-[6-[(1E,3S,5Z)-3-hydroxyundeca-1,5-dienyl]pyridin-2-yl]hexane-1,5-diol], for which the figures for the inhibition constant (Ki) in test [1] and in test [2] were 5.43 µM and 0.025 µM, respectively.

As to `CCCCC/C=C\C\C=C/C=C/C=C/[C@@H](SC[C@H](N)C(=O)O)[C@@H](O)CCCC(=O)O` [(5S-(5R*,6S*(S*),7E,9E,11Z,14Z))-6-((2-Amino-2-carboxyethyl)thio)-5-hydroxy-7,9,11,14-eicosatetraenoic acid], the inhibition constant Ki in test [1] was found to be 6 µM; in test [2], 2.37 µM.

As to `CC(C)(O)c1ccccc1CCC(S)c1cccc(C=Cc2ccc3ccc(Cl)cc3n2)c1` (centres undefined) [NSC_5311297], the Ki in test [1] and in test [2] was above 10 µM throughout.

As to `CCCCCCCCC=CC=CC=CC(SCC(N)C(=O)O)C(O)CCCC(=O)O` (centres undefined) [LTE3], the figures for the Ki in test [1] and in test [2] were 4 µM and above 10 µM, respectively.

With `CC/C=C/C=C/CCC=CC=CC=CC(SCC(NC(=O)CCC(N)C(=O)O)C(=O)NCC(=O)O)C(O)CCCC(=O)O` (centres undefined) [LTC5], the inhibitory constant (Ki) in test [1] is 3 µM; in test [2] it was above 10 µM.

For `O=C(O)CCC[C@H](O)\C=C/C=C/C=C/[C@H](O)C/C=C\CCCCCO` [LTB4-20-hydroxy], the Ki in test [1] turned out to be 0.041 µM; in test [2] it was 0.00054 µM.

`CCCCC[C@@H](O)/C=C/C=C\C/C=C\C/C=C\CCCC(=O)O`: the Ki is 0.173 µM in test [1] and above 18 µM in test [2].

The compound `CC/C=C/CC=CCC=CC=CC=CC1OC1CCCC(=O)OC` (centres undefined) [LTA5-ME] returned a Ki in test [2] above 10 µM.

The values above are taken from BindingDB's records for doi:10.1074/jbc.M004512200 (Schering-Plough Research Institute, 2000).
